Test results: the CheMixHub ionic liquid set
± gives the uncertainty stated by the source.

Test: xn = mol fraction of the nth substance listed
[1] = 288.15 K, 100 kPa, frequency 0.003 MHz, x2 = 0
[2] = 308.15 K, 100 kPa, frequency 0.003 MHz, x2 = 0

Work on `CCCC[n+]1ccn(C)c1.F[B-](F)(F)F` + CC(=O)N(C)C yielded an electrical conductivity (288.15 K, 100 kPa, x1 = 5.846e-05) of 0.003905 ± 1.9e-06 S/m, an electrical conductivity (288.15 K, 100 kPa, x1 = 0.0006944) of 0.04135 ± 2e-05 S/m and a viscosity (293.15 K, 101 kPa, x1 = 0.7419) of 51.8 ± 7.8 mPa·s. For the same compound, the viscosity (293.15 K, 101 kPa, x1 = 0.8488) was 74 ± 11 mPa·s, the viscosity (293.15 K, 101 kPa, x1 = 0.9175) was 96 ± 14 mPa·s and the viscosity (293.15 K, 101 kPa, x1 = 1) was 125 ± 19 mPa·s. The electrical conductivity (298.15 K, 100 kPa, x1 = 0.0002592) was 0.01885 ± 9e-06 S/m, the viscosity (298.15 K, 101 kPa, x1 = 0.7419) was 44.6 ± 6.7 mPa·s and the viscosity (298.15 K, 101 kPa, x1 = 0.8488) was 63.1 ± 9.5 mPa·s. For the same compound, the viscosity (298.15 K, 101 kPa, x1 = 0.9175) was 81 ± 12 mPa·s, the viscosity (298.15 K, 101 kPa, x1 = 1) was 105 ± 16 mPa·s and the viscosity (303.15 K, 101 kPa, x1 = 0.7419) was 36.7 ± 5.5 mPa·s. The viscosity (303.15 K, 101 kPa, x1 = 0.8488) was 52.7 ± 7.9 mPa·s, the viscosity (303.15 K, 101 kPa, x1 = 0.9175) was 67 ± 10 mPa·s and the viscosity (303.15 K, 101 kPa, x1 = 1) was 88 ± 13 mPa·s. For the same compound, the electrical conductivity (308.15 K, 100 kPa, x1 = 5.846e-05) was 0.005095 ± 2.4e-06 S/m, the electrical conductivity (308.15 K, 100 kPa, x1 = 0.0008703) was 0.06575 ± 3e-05 S/m and the electrical conductivity (308.15 K, 100 kPa, x1 = 0.001047) was 0.07765 ± 3.5e-05 S/m. The viscosity (308.15 K, 101 kPa, x1 = 0.7419) was 29.6 ± 4.5 mPa·s, the viscosity (308.15 K, 101 kPa, x1 = 0.8488) was 43.4 ± 6.5 mPa·s and the viscosity (308.15 K, 101 kPa, x1 = 0.9175) was 54.9 ± 8.3 mPa·s. The viscosity (308.15 K, 101 kPa, x1 = 1) was 72 ± 11 mPa·s, the viscosity (313.15 K, 101 kPa, x1 = 0.7419) was 22.6 ± 3.4 mPa·s and the viscosity (313.15 K, 101 kPa, x1 = 0.8488) was 33.5 ± 5 mPa·s. The viscosity (313.15 K, 101 kPa, x1 = 0.9175) was 42.9 ± 6.5 mPa·s, the viscosity (313.15 K, 101 kPa, x1 = 1) was 57.7 ± 8.7 mPa·s and the viscosity (313.15 K, 101 kPa, x2 = 0.5002) was 9.57 ± 0.11 mPa·s. It also gave a viscosity (313.15 K, 101 kPa, x2 = 0.8999) of 1.434 ± 0.019 mPa·s, a viscosity (318.15 K, 101 kPa, x1 = 0.7419) of 16.2 ± 2.4 mPa·s and a viscosity (318.15 K, 101 kPa, x1 = 0.8488) of 24.3 ± 3.7 mPa·s. For the same compound, the viscosity (318.15 K, 101 kPa, x1 = 0.9175) was 31.8 ± 4.8 mPa·s, the viscosity (318.15 K, 101 kPa, x1 = 1) was 44 ± 6.6 mPa·s and the viscosity (323.15 K, 101 kPa, x1 = 0.7419) was 9.8 ± 1.5 mPa·s. The viscosity (323.15 K, 101 kPa, x1 = 0.8488) was 16.2 ± 2.4 mPa·s, the viscosity (323.15 K, 101 kPa, x1 = 0.9175) was 22.3 ± 3.4 mPa·s and the viscosity (323.15 K, 101 kPa, x1 = 1) was 31.6 ± 4.7 mPa·s. The viscosity (323.15 K, 101 kPa, x2 = 0.5998) was 5.02 ± 0.06 mPa·s, the viscosity (323.15 K, 101 kPa, x2 = 0.6996) was 3.3 ± 0.04 mPa·s and the viscosity (323.15 K, 101 kPa, x2 = 0.8999) was 1.253 ± 0.016 mPa·s. It also gave a viscosity (333.15 K, 101 kPa, x2 = 0.8002) of 1.77 ± 0.023 mPa·s.

Work on `CC(C)[C@H]1CC[C@H](C)C[C@@H]1O` + CCCCCCCC[N+](CCCCCCCC)(CCCCCCCC)CCCCCCCC.[Br-] + [Cl-].[Cl-].[Co+2] yielded a viscosity (296.1 K, 101.3 kPa, x2 = 0.2857, x3 = 0.1429) of 11900 ± 4200 mPa·s, a viscosity (296.1 K, 101.3 kPa, x2 = 0.4, x3 = 0.2) of 22000 ± 10000 mPa·s and a viscosity (296.1 K, 101.3 kPa, x2 = 0.4286, x3 = 0.1429) of 17800 ± 7500 mPa·s.

Work on `CCCC[n+]1ccn(C)c1.F[B-](F)(F)F` + CCCC[n+]1ccn(C)c1.COS(=O)(=O)[O-] yielded a viscosity (302.15 K, 101 kPa, x1 = 1) of 88.7 ± 2 mPa·s and a viscosity (305.15 K, 101 kPa, x1 = 1) of 76.8 ± 1.5 mPa·s.

Compound `CCCCCCCCn1cc[n+](C)c1.O=S(=O)([N-]S(=O)(=O)C(F)(F)F)C(F)(F)F` + c1ccccc1 has a viscosity (293 K, 101 kPa, x1 = 0.2) of 7.34 mPa·s and a viscosity (293 K, 101 kPa, x1 = 0.6) of 46.2 mPa·s.

For `CC[n+]1ccn(C)c1.N#C[N-]C#N` + CC[n+]1ccn(C)c1.N#C[S-], the electrical conductivity (298.15 K, 100 kPa, x2 = 0.2585) was 2.68 ± 0.11 S/m, the viscosity (298.15 K, 100 kPa, x2 = 0.2585) was 16.36 ± 0.69 mPa·s and the electrical conductivity (308.15 K, 100 kPa, x2 = 0.2585) was 3.45 ± 0.14 S/m. It also gave a viscosity (308.15 K, 100 kPa, x2 = 0.2585) of 12.4 ± 0.53 mPa·s, an electrical conductivity (318.15 K, 100 kPa, x2 = 0) of 4.52 ± 0.18 S/m and a viscosity (318.15 K, 100 kPa, x2 = 0) of 8.93 ± 0.37 mPa·s. The electrical conductivity (318.15 K, 100 kPa, x2 = 0.7603) was 4.01 ± 0.16 S/m, the viscosity (318.15 K, 100 kPa, x2 = 0.7603) was 11.79 ± 0.54 mPa·s and the electrical conductivity (323.15 K, 100 kPa, x2 = 0.5112) was 4.62 ± 0.19 S/m. It also gave a viscosity (323.15 K, 100 kPa, x2 = 0.5112) of 9.51 ± 0.42 mPa·s, a viscosity (328.15 K, 100 kPa, x2 = 0.2585) of 7.87 ± 0.33 mPa·s and a viscosity (333.15 K, 100 kPa, x2 = 0) of 6.37 ± 0.26 mPa·s. The viscosity (338.15 K, 100 kPa, x2 = 0.2585) was 6.49 ± 0.28 mPa·s, the viscosity (348.15 K, 100 kPa, x2 = 0.5112) was 5.87 ± 0.26 mPa·s and the viscosity (353.15 K, 100 kPa, x2 = 0.7603) was 5.7 ± 0.26 mPa·s.

Compound `O` + CCCCCCCC[n+]1ccc(C)cc1.[Br-] has an electrical conductivity [1] of 0.0001 S/m and an electrical conductivity [2] of 0.00022 S/m.

Compound `CCCCn1cc[n+](CCOCCOCC[n+]2ccn(CCCC)c2)c1.N#C[N-]C#N.N#C[N-]C#N` + CC[n+]1ccn(C)c1.N#C[N-]C#N + O=S(=O)([N-]S(=O)(=O)C(F)(F)F)C(F)(F)F.[Li+] has an electrical conductivity (298 K, 100 kPa, x1 = 0.2388, x2 = 0.6693) of 0.505 ± 0.02 S/m, an electrical conductivity (303 K, 100 kPa, x1 = 0.2388, x2 = 0.6693) of 0.581 ± 0.023 S/m and an electrical conductivity (313 K, 100 kPa, x1 = 0.2388, x2 = 0.6693) of 0.847 ± 0.034 S/m. The electrical conductivity (323 K, 100 kPa, x1 = 0.2388, x2 = 0.6693) was 1.23 ± 0.049 S/m, the electrical conductivity (333 K, 100 kPa, x1 = 0.2388, x2 = 0.6693) was 1.53 ± 0.061 S/m and the electrical conductivity (343 K, 100 kPa, x1 = 0.2388, x2 = 0.6693) was 1.85 ± 0.074 S/m.

With `C1COCCO1` + CC[n+]1ccn(C)c1.F[B-](F)(F)F the viscosity (323.15 K, 100 kPa, x1 = 1) was 0.814 ± 0.082 mPa·s and the viscosity (343.15 K, 100 kPa, x1 = 1) was 0.64 ± 0.064 mPa·s.

Work on `CCCC[n+]1cccc(C)c1.F[B-](F)(F)F` + O yielded an electrical conductivity (298.15 K, 101 kPa, x1 = 0.0002144) of 0.107 ± 0.02 S/m, an electrical conductivity (298.15 K, 101 kPa, x1 = 0.0004179) of 0.2 ± 0.02 S/m and an electrical conductivity (298.15 K, 101 kPa, x1 = 0.0004845) of 0.232 ± 0.02 S/m. It also gave an electrical conductivity (298.15 K, 101 kPa, x1 = 0.0007527) of 0.331 ± 0.02 S/m, an electrical conductivity (298.15 K, 101 kPa, x1 = 0.001001) of 0.448 ± 0.02 S/m and an electrical conductivity (298.15 K, 101 kPa, x1 = 0.001159) of 0.5 ± 0.02 S/m. It also gave an electrical conductivity (298.15 K, 101 kPa, x1 = 0.00129) of 0.549 ± 0.02 S/m, an electrical conductivity (298.15 K, 101 kPa, x1 = 0.001546) of 0.642 ± 0.02 S/m and an electrical conductivity (298.15 K, 101 kPa, x1 = 0.001714) of 0.709 ± 0.02 S/m. The electrical conductivity (298.15 K, 101 kPa, x1 = 0.001876) was 0.763 ± 0.02 S/m, the electrical conductivity (298.15 K, 101 kPa, x1 = 0.002129) was 0.837 ± 0.02 S/m and the electrical conductivity (298.15 K, 101 kPa, x1 = 0.002298) was 0.886 ± 0.02 S/m. The electrical conductivity (298.15 K, 101 kPa, x1 = 0.002565) was 0.977 ± 0.02 S/m, the electrical conductivity (298.15 K, 101 kPa, x1 = 0.002757) was 1.03 ± 0.02 S/m and the electrical conductivity (298.15 K, 101 kPa, x1 = 0.002862) was 1.08 ± 0.02 S/m. It also gave an electrical conductivity (298.15 K, 101 kPa, x1 = 0.003167) of 1.15 ± 0.02 S/m and an electrical conductivity (298.15 K, 101 kPa, x1 = 0.003324) of 1.2 ± 0.02 S/m.

In the case of `CC1COC(=O)O1` (stereo not drawn) + CC[N+](CC)(CC)CC.F[B-](F)(F)F, the viscosity (283.15 K, 101 kPa, x1 = 1) is reported as 3.551 ± 0.051 mPa·s, the viscosity (298.15 K, 101 kPa, x1 = 1) is reported as 2.531 ± 0.037 mPa·s and the viscosity (308.15 K, 101 kPa, x1 = 1) is reported as 2.09 ± 0.031 mPa·s. For the same compound, the viscosity (313.15 K, 101 kPa, x1 = 1) was 1.918 ± 0.029 mPa·s.

`O` + CCCCCC[n+]1ccc(C)cc1.[Br-] showed an electrical conductivity [1] of 0.0001 S/m and an electrical conductivity [2] of 0.00022 S/m.

`CC[n+]1ccn(C)c1.N#C[N-]C#N` + OCC(F)(F)F showed a viscosity (298.15 K, 100 kPa, x1 = 0.2936) of 4.06 ± 0.6 mPa·s, a viscosity (298.15 K, 100 kPa, x1 = 0.3935) of 5.03 ± 0.6 mPa·s and a viscosity (303.15 K, 100 kPa, x1 = 0.1031) of 2.18 ± 0.6 mPa·s. For the same compound, the viscosity (303.15 K, 100 kPa, x1 = 0.5915) was 6.32 ± 0.6 mPa·s, the viscosity (308.15 K, 100 kPa, x1 = 0.8915) was 8.72 ± 0.61 mPa·s and the viscosity (313.15 K, 100 kPa, x1 = 1) was 8.86 ± 0.61 mPa·s. The viscosity (318.15 K, 100 kPa, x1 = 0.1957) was 2.07 ± 0.6 mPa·s and the viscosity (318.15 K, 100 kPa, x1 = 0.2936) was 2.62 ± 0.6 mPa·s.
